Earlier results on five compounds are cited in publication PMC10326281, “Insights into the mechanisms governing P01 scorpion toxin effect against U87 glioblastoma cells oncogenesis” (Frontiers in Pharmacology, 2023).

Where two headings read alike, the source gives them in different places. Bridges are numbered along the chain shown (N, C = ends). Where no end group is shown, it is not given here.

The subject of series [1] is SK2 channel. The note with it: HEK293 cells; ref Hosseini et al., 2001; cited from earlier work. From the text:
(§1) Besides, it seems that the effect of P01 on U87 cell proliferation is not due only to its blocking activity of SK2 channels, but also by targeting a complex of membrane receptors and/or effectors expressed in U87 cells, including SK2. […] These authors noted that the concentrations necessary for blocking proliferation were higher than those necessary for blocking these ion ...

In series [2] the test system is U87 cells. The note with it: ref Abdullaev et al., 2010; cited from earlier work.
Excerpt: as §1

Series [3] relates to hSK1 channel. The settings on record: 2000, cited from earlier work. From the text: (§2) Our team has initiated the fractionation of Aa scorpion venom, in order to identify scorpion peptides targeting potassium channels involved in the oncological process. Thus, we succeeded to isolate one peptide well represented in this venom. Based on its N-terminal sequence and its mass fingerprint this peptide corresponded to the P01 toxin, previously described by ([Zerrouk et al., 1996]).

Series [4] relates to rSK2 channel. The note with it: cited from earlier work.
Excerpt: as §2

Series [5] deals with hSK1 channel. The settings on record: ref Shah and Haylett, 2000, cited from earlier work. From the text: This can be explained by the differential expression of either functional SK2 isoforms or other membrane receptors between HEK293 and Jurkat cells.
Series [6] has as its system Kv1.3 potassium channel. The note with it: ref Wang, 2004; cited from earlier work. From the text: Recently, the anticancer activities of some natural peptides/toxins attracted considerable attention in drug discovery and have been the object of several studies showing that they affect tumor growth, induce apoptosis and inhibit cancer metastasis and angiogenesis in vitro and in vivo ([Ding et al., 2014]; [Majc et al., 2022]). Several examples of the activity of these peptides/toxins as well as their effect on K^+ channels have been recently summarized in many reviews.

For series [7], the system named is BKCa channel. The note with it: ref Wang, 2004; cited from earlier work. From the text:
(§3) Recently, the anticancer activities of some natural peptides/toxins attracted considerable attention in drug discovery and have been the object of several studies showing that they affect tumor growth, induce apoptosis and inhibit cancer metastasis and angiogenesis in vitro and in vivo ([Ding et al., 2014]; [Majc et al., 2022]). Several examples of the activity of these peptides/toxins as well as their effect on K^+ channels have been recently summarized in many reviews. Thes ...

Series [8] has as its system IKCa/SK4 channel. The note with it: ref Wang, 2004; cited from earlier work.
Excerpt: as §3

For series [9], the system named is endometrial cancer cell lines. The settings on record: ref Wang, 2004; cited from earlier work.
Excerpt: as §3

In series [10] the test system is pancreatic cancer cell lines. The note with it: ref Wang, 2004; cited from earlier work.
Excerpt: as §3

The test system of series [11] is U87 cells. The note with it: ref Pyrko et al., 2005, cited from earlier work. From the text:
(§4) Thus, P01 and KAaH1 inhibited the U87 cell migration with different mechanisms. […] For instance, PIVL, a Kunitz-type serine protease inhibitor, from the venom of the Tunisian snake Macrovipera lebetina transmediterranea, re ...

Series [12] relates to integrins. The settings on record: tumor cell and angiogenic endothelial cell surface; ref Schmitmeier et al., 2005; cited from earlier work.
Excerpt: as §4

By IC50 is commonly meant the concentration at which inhibition is half-maximal. Turning to `c1ccc2c(c1)c1cc[n+]2CCCCC[n+]2ccc(c3ccccc32)NCCCCCN1` [UCL1848], the IC50 in series [1] is 120 pM. In addition, the “effect on U87 cell proliferation” value in series [2] is “no effect”.
As to “apamin (CNCKAPETALCARRCQQH-NH2; disulfide 1-11, 3-15; ends not checked; UniProt P01500 28-45, looked up)”, the half-maximal inhibitory concentration (IC50) in series [3] (HEK293 cells, ref Shah and Haylett) was 8000 pM; in [3] (HEK 293 cells, ref Strobaek et al.), 3300 pM; in series [4] (HEK 293 cells, ref Strobaek et al., 2000), 83 pM; in series [5] (COS-7 cells), 12000 pM; in series [5] (Xenopus oocytes) it was 100 pM.
Regarding charybdotoxin, the “block of Kv1.3” value in series [6] was “known blocker”. Moreover, the “block of BKCa” value in series [7] is “known blocker”. Further, the “block of IKCa/SK4” value in [8] is “known blocker”. Also, the “proliferation and cell cycle progression” value in [9] is “inhibited proliferation and cell cycle progression”; in series [10] it was “inhibited proliferation and cell cycle progression”.
contortrostatin: the survival result in series [11] (rodent glioma model) was “prolongation of survival”. The tumor progression result in [11] (tumor induced by stereotactic injection of U87 cells) is “inhibited the tumor (induced by the stereotactically injection of U87 cells) progression”. The integrin binding entry in series [12] is “specifically binds to certain integrins”.
Regarding “leiurotoxin I: first toxin isolated from Leiurus quintestriatus scorpin (AFCNLRMCQLSCRSLGLLGKCIGDKCECVKH-NH2; disulfide 12-28, 3-21, 8-26; ends not checked; UniProt P16341 1-31, looked up)”, the IC50 in [4] (HEK293 cells, ref Hosseini et al., 2001) is 280 pM.
